Reference: patent publication US10793575B2, “Oxoisoquinoline derivatives” (CARNA BIOSCIENCES, INC., priority 2016, dated 2020)

Columns and labels:
BTK = BTK (Homo sapiens (Human), UniProt Q06187); experiment: Intracellular BTK Auto-Phosphorylation Activity Inhibition Test in Ramos cells; type: cell-based; settings: test compound 0.03 μM, anti-IgM stimulation, pY223, read-out: Inhibitory Activity on BTK-phosphorization
Procedure: Ramos cells (2G6.4C10, ATCC No. CRL-1923) were cultured in a T75 flask containing RPMI-1640 medium (GIBCO, # A10491-01) supplemented with 10% FBS (AusGene) and 1% penicillin-streptomycin (Nacalai Tesque, Inc.) (hereinafter referred to as growth medium) in a 5% CO2 incubator.
The cultured Ramos cells were diluted to a cell density of 7.5×10^6 cells/mL with a serum-free RPMI-1640 (hereinafter referred to as medium) and kept at 37° C. for 45 minutes. The cell suspension was dispensed in 1 mL aliquots into 2.0 mL tubes. A 0.03 mM solution of the test substance in DMSO was diluted with the medium to make a 0.09 μM test compound solution, 500 μL of which was then added to the tubes and the incubation was conducted at 37° C. for 1 hour in the presence of the test compound at a final concentration of 0.03 μM. Thereafter, the anti-IgM antibody (Invitrogen, H15100) which had been diluted with the medium was added at a final concentration of 10 μg/mL, and the incubation was conducted at 37° C. for 10 minutes.
To the pellets obtained by recovering the cells via centrifugation, 100 μL of a lysis buffer [RIPA Buffer(×1)(Cell Signaling Technology, Inc.) supplemented with 1% Phosphatase inhibitor Cacktail 3 (Sigma Corporation, No. P0044), 1% Phosphatase inhibitor Cacktail (Nacalai Tesque, Inc., No. 07575) and 1 mM phenylmethylsulfonyl fluoride (PMSF)] was added and stirred gently and then allowed to stand for 10 minutes. The supernatant was recovered by centrifugation (15,000 rpm, 15 minutes) and the protein level was quantified. The portion was mixed with the SDS-sample buffer, allowed to react for 5 minutes at 95° C. to denature the protein, thereby obtaining a sample solution. Each 5 μL of the sample solutions was applied to each well containing a 5 to 20% gradient acrylamide gel (Nacalai Tesque, Inc., No. 13064-04) and electrophoresis was conducted. Thereafter, iBlot gel transfer system (Life Technologies Corporation) was used to transfer the proteins in the gel onto a PVDF membrane.
The PVDF membrane after transfer was blocked with 2% ECL prime blocking Reagent (GE Healthcare) and thereafter the reaction was conducted overnight at 4° C. using anti-BTK mouse antibody (BD transduction laboratory, No. 611116) or anti-phosphorylated BTK rabbit antibody (pY223, EPITOMICS, No. 2207-1) as a primary antibody. The unreacted primary antibody was washed with a TBST buffer (10 mM Tris-HCl (pH 7.5), 150 mM NaCl, 0.1% Tween 20) and then the reaction was conducted for 1 hour at room temperature in a TBST buffer supplemented with 2% ECL prime blocking Reagent using HRP-labeled anti-mouse IgG horse antibody (Cell Signaling Technology, No. 7076) or anti-rabbit IgG goat antibody (Cell Signaling Technology, No. 7074) as a secondary antibody. After washing the unreacted secondary antibody with the TBST buffer, Chemi-Lumi One Super (Nacalai Tesque, Inc.) was used to conduct a reaction in accordance with the attached protocol, and then the respective bands as chemiluminescences were detected with a CCD camera (GE Healthcare ImageQuant LAS 500). […] Each phosphorylated BTK band was corrected based on the total BTK.
The intracellular BTK autophosphorylation inhibiting activity was indicated with the mark “***” when 90% or more, with the mark “**” when 70% or more and less than 90%, and with the mark “*” when 50% or more and less than 70%.

dephosphorylated BTK = dephosphorylated BTK (Homo sapiens (Human), UniProt Q06187); experiment: BTK Activity Inhibition Test (mobility shift assay); type: biochemical; settings: 200 μM ATP, read-out: Inhibitory Activity on BTK
dephosphorylated BTK, sequence (Q06187 whole entry): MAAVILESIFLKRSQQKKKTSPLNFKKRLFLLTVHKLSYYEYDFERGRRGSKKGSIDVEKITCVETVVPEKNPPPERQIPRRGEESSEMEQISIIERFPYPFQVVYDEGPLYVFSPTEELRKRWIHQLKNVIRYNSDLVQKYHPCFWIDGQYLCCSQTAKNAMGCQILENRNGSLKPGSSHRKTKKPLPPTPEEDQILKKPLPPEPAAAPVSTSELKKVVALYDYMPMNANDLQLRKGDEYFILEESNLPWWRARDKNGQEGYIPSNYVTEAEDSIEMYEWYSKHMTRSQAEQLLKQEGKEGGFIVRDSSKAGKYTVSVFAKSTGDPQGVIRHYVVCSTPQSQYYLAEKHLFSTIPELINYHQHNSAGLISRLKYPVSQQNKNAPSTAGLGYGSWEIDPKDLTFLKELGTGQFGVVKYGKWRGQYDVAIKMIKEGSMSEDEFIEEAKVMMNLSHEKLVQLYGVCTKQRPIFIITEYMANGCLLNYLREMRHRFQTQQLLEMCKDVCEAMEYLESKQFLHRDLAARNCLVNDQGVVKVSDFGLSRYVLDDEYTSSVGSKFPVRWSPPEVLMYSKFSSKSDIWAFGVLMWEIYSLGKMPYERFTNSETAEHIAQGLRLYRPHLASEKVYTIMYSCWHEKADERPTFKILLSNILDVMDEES
Procedure: Dephosphorylated BTK was obtained by adding λ protein phosphatase (manufactured by New England BioLabs Inc., Code No. P0753S) and MnCl2 at 10 U/μg and 2 mM, respectively, to biotinylated BTK protein BTN-BTK (Manufactured by Carna Biosciences, Inc.) enzyme solution, reacting the mixture at 4° C. overnight, and removing of λ protein phosphatase by anti […]-tag antibody agarose gel chromatography, followed by buffer exchange using a 10DG Desalting Column.
The kinase activity was measured using QuickScout Screening Assist (trade mark) MSA (commercially available kit manufactured by Carna Biosciences, Inc.) by mobility shift assay (MSA) method. The substrate of the kinase reaction was an FITC-labeled SRCtide peptide included in the kit. An assay buffer [20 mM HEPES, 0.01% Triton X-100 (Trade mark), 2 mM dithiothreitol, pH 7.5] was used and adjusted at 4 μM substrate, 20 mM MgCl2 and 200 μm ATP to obtain a substrate mixture solution. The enzyme solution was also prepared by diluting the dephosphorylated BTK to 0.46 nM using the assay buffer. The 10 mM solution of the test compound in DMSO was further diluted with DMSO to 10 levels of the concentration (0.00003 mM, 0.0001 mM, 0.0003 mM, 0.001 mM, 0.003 mM, 0.01 mM, 0.03 mM, 0.1 mM, 0.3 mM, 1 mM), each of which was subjected to a 25-fold dilution with the assay buffer to obtain the drug solutions (4% DMSO solutions). 5 μL of the drug solution or a control solution (4% DMSO-assay buffer), 5 μL of the substrate mixture solution, and 10 μL of the enzyme solution were mixed in the wells of a polypropylene 384-well plate and allowed to react at room temperature for 2 hours, and then quenched by adding 60 μL of the termination buffer included in the kit. Subsequently, the quantities of the substrates (S) and the phosphorylated substrate (P) in the reaction solution were measured using LabChip EZ Reader II system (manufactured by Caliper Life Sciences) according to the protocol of the assay kit.
(§1) The heights of the peaks of the isolated substrate and the phosphorylated substrate were represented as S and P, respectively, and a blank which contained the assay buffer instead of the enzyme solution was also measured.
(§2) The inhibition rate (%) of the test compound was calculated according to the following equation; Inhibition rate (%)=(1−(C−A)/(B−A))×100 • wherein, A, B and C represent P/(P+S) of the blank well, P/(P+S) of the control well and P/(P+S) of the compound-containing well, respectively.
(§3) The IC50 value was calculated via a regression analysis of the inhibition rate (%) and the test compound concentration (logarithmic value).

[1] = target: C481S mutant BTK [BTK(C481S)] (Homo sapiens (Human), UniProt Q06187, C481S); experiment: C481S Mutant BTK Inhibitory Activity Test (mobility shift assay); type: biochemical; settings: for IC50: C481S mutant BTK, 100 μM ATP; for C481S mutation-resistance: IC50[BTK(C481S)]/IC50[BTK(WT)]
C481S mutant BTK [BTK(C481S)], sequence (Q06187 whole entry C481S): as the sequence (Q06187 whole entry) above, with C481S counted along it
Procedure: (§4) The kinase activity was measured using QuickScout Screening Assist (trademark) MSA (commercially available kit manufactured by Carna Biosciences, Inc.) by mobility shift assay (MSA) method. The substrate of the kinase reaction was an FITC-labeled SRCtide peptide included in the kit. […] The 10 mM solution of the test compound in DMSO was further diluted with DMSO to 10 levels of the concentration (0.00003 mM, 0.0001 mM, 0.0003 mM, 0.001 mM, 0.003 mM, 0.01 mM, 0.03 mM, 0.1 mM, 0.3 mM, 1 mM), each of which was subjected to a 25-fold dilution with the assay buffer to obtain the drug solutions (4% DMSO solutions).
(§5) 5 μL of the drug solution or a control solution (4% DMSO-assay buffer), 5 μL of the substrate mixture solution, and 10 μL of the enzyme solution were mixed in the wells of a polypropylene 384-well plate and allowed to react at room temperature for 1 hour, and then quenched by adding 60 μL of the termination buffer included in the kit. Subsequently, the quantities of the substrates (S) and the phosphorylated substrate (P) in the reaction solution were measured using LabChip EZ Reader II system (manufactured by Caliper Life Sciences) according to the protocol of the assay kit.
as §1, §2, §3

OCI-Ly10 cells = experiment: Proliferation-Inhibitory Test Against Diffuse Large-Cell B-Cell Lymphoma OCI-Ly10 Strain; type: cell-based; settings: Homo sapiens, 96 hours, alamarBlue
Outline: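 In IMDM with 20% FBS, OCI-Ly10 cells (20000 cells/well) were exposed to compound at 0.9 nM to 30000 nM (0.3% DMSO final) for 96 hours. Viability was then read with alamarBlue reagent.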

wild type BTK [BTK(WT)] = wild type BTK [BTK(WT)] (Homo sapiens (Human), UniProt Q06187); experiment: C481S Mutant BTK Inhibitory Activity Test, wild type BTK (mobility shift assay); type: biochemical; settings: 120 μM ATP
wild type BTK [BTK(WT)], sequence (Q06187 whole entry): as the sequence (Q06187 whole entry) above
Procedure: as §4, §5, §1, §2, §3

BTK, sequence (Q06187 whole entry): as above

Row | SMILES | inhibition at 0.03 µM (BTK) [%] | IC50 (dephosphorylated BTK) [nM] | IC50 [1] [nM] | C481S mutation-resistance [1] | IC50 (OCI-Ly10 cells) [nM] | IC50 (wild type BTK [BTK(WT)]) [nM]
1 | COc1cccc(-c2nc3c(-c4cccc(-n5ccc6cc(C7CC7)cc(F)c6c5=O)c4CO)nc(N)nc3[nH]2)c1 [Example 18, 2-{3-[2-amino-8-(3-methoxyphenyl)-9H-purin-6-yl]-2-(hydroxymethyl)phenyl}-6-cyclopropyl-8-fluoroisoquinolin-1(2H)-one] | ≥ 90 | < 10 | – | – | – | –
2 | COc1cccc(-c2cc3c(-c4cccc(-n5ccc6cc(C7CC7)cc(F)c6c5=O)c4CO)nc(N)nc3[nH]2)c1 [Example 15, 2-{3-[2-amino-6-(3-methoxyphenyl)-7H-pyrrolo[2,3-d]pyrimidin-4-yl]-2-(hydroxymethyl)phenyl}-6-cyclopropyl-8-fluoroisoquinolin-1(2H)-one] | ≥ 90 | < 10 | – | – | – | –
3 | Nc1nc(-c2cccc(-n3ccc4cc(C5CC5)cc(F)c4c3=O)c2CO)c2nc(-c3cccnc3)[nH]c2n1 [Example 25, 2-{3-[2-amino-8-(pyridin-3-yl)-9H-purin-6-yl]-2-(hydroxymethyl)phenyl]-6-cyclopropyl-8-fluoroisoquinolin-1(2H)-one] | ≥ 90 | < 10 | – | – | – | –
4 | COc1ccccc1-c1cc2c(-c3cccc(-n4ccc5cc(C6CC6)cc(F)c5c4=O)c3CO)nc(N)nc2[nH]1 [Example 14, 2-{3-[2-amino-6-(2-methoxyphenyl)-7H-pyrrolo[2,3-d]pyrimidin-4-yl]-2-(hydroxymethyl)phenyl}-6-cyclopropyl-8-fluoroisoquinolin-1(2H)-one] | 70 to 90 | < 10 | – | – | – | –
5 | COc1ccc(-c2cc3c(-c4cccc(-n5ccc6cc(C7CC7)cc(F)c6c5=O)c4CO)nc(N)nc3[nH]2)cc1 [Example 16, 2-{3-[2-amino-6-(4-methoxyphenyl)-7H-pyrrolo[2,3-d]pyrimidin-4-yl]-2-(hydroxymethyl)phenyl}-6-cyclopropyl-8-fluoroisoquinolin-1(2H)-one] | ≥ 90 | < 10 | – | – | – | –
6 | Nc1nc(-c2cccc(-n3ccc4cc(C5CC5)cc(F)c4c3=O)c2CO)c2cc(-c3cccnc3)[nH]c2n1 [Example 17, 2-{3-[2-amino-6-(pyridin-3-yl)-7H-pyrrolo[2,3-d]pyrimidin-4-yl]-2-(hydroxymethyl)phenyl}-6-cyclopropyl-8-fluoroisoquinolin-1(2H)-one] | ≥ 90 | < 10 | – | – | – | –
7 | Nc1nc(-c2cccc(-n3ccc4cc(C5CC5)cc(F)c4c3=O)c2CO)c2c(-c3ccccc3)n[nH]c2n1 [Example 3, 2-[3-(6-amino-3-phenyl-1H-pyrazolo[3,4-d]pyrimidin-4-yl)-2-(hydroxymethyl)phenyl]-6-cyclopropyl-8-fluoroisoquinolin-1(2H)-one] | ≥ 90 | < 10 | – | – | – | –
8 | Nc1nc(-c2cccc(-n3ccc4cc(C5CC5)cc(F)c4c3=O)c2CO)c2cc(-c3ccnc(F)c3)[nH]c2n1 [Example 43, 2-{3-[2-amino-6-(2-fluoropyridin-4-yl)-7H-pyrrolo[2,3-d]pyrimidin-4-yl]-2-(hydroxymethyl)phenyl}-6-cyclopropyl-8-fluoroisoquinolin-1(2H)-one] | – | < 10 | 1.72 | 1.5 | 194 | 1.11
9 | Nc1nc(-c2cccc(-n3ccc4cc(C5CC5)cc(F)c4c3=O)c2CO)c2cc(-c3cccc(F)n3)[nH]c2n1 [Example 42, 2-{3-[2-amino-6-(6-fluoropyridin-2-yl)-7H-pyrrolo[2,3-d]pyrimidin-4-yl]-2-(hydroxymethyl)phenyl}-6-cyclopropyl-8-fluoroisoquinolin-1(2H)-one] | – | < 10 | 1.06 | 1.2 | 97 | 0.87
10 | CS(=O)(=O)c1ccc(-c2cc3c(-c4cccc(-n5ccc6cc(C7CC7)cc(F)c6c5=O)c4CO)nc(N)nc3[nH]2)cc1 [Example 41, 2-(3-{2-amino-6-[4-(methylsulfonyl)phenyl]-7H-pyrrolo[2,3-d]pyrimidin-4-yl}-2-(hydroxymethyl)phenyl)-6-cyclopropyl-8-fluoroisoquinolin-1(2H)-one] | – | < 10 | 1.03 | 1.4 | 17 | 0.73
11 | CN(C)Cc1ccc(-c2cc3c(-c4cccc(-n5ccc6cc(C7CC7)cc(F)c6c5=O)c4CO)nc(N)nc3[nH]2)cc1 [Example 51, 2-[3-(2-amino-6-{4-[(dimethylamino)methyl]phenyl}-7H-pyrrolo[2,3-d]pyrimidin-4-yl)-2-(hydroxymethyl)phenyl]-6-cyclopropyl-8-fluoroisoquinolin-1(2H)-one] | – | – | 0.78 | 1.8 | 10 | 0.43
